From ChEMBL document CHEMBL4364251, “Design, synthesis and biological evaluation of new quinoline derivatives as potential antitumor agents” (Eur J Med Chem, 2019) come the findings set out here.

Type in all cases: functional, cell-based
In one assay the test system is BGC-823. The experiment in a line: Antiproliferative activity against human BGC823 cells incubated for 48 hrs by MTT assay. Particulars: BGC-823, 48 h.
For a further assay, the system named is NCI-H1650. In words: Antiproliferative activity against human NCI-H1650 cells incubated for 48 hrs by MTT assay. Particulars: NCI-H1650, 48 h. On the technique in general: Tetrazolium dyes change colour on reduction, which living cells bring about.
Another assay concerns HeLa. In words: Antiproliferative activity against human HeLa cells incubated for 48 hrs by MTT assay.
A further assay deals with A2780. The experiment in a line: Antiproliferative activity against human A2780 cells incubated for 48 hrs by MTT assay. Particulars: A2780, 48 h.
The subject of a further assay is RKO. In words: Antiproliferative activity against human RKO cells incubated for 48 hrs by MTT assay.
For the next assay, the system named is HCT-116. In words: Antiproliferative activity against human HCT116 cells incubated for 48 hrs by MTT assay. Particulars: HCT-116, 48 h.
The next assay has as its system A549. In words: Antiproliferative activity against human A549 cells incubated for 48 hrs by MTT assay. Particulars: A549, 48 h.

pIC50: −log10 of the molar value. A value given as a limit tells only on which side of the number the result lay.

Regarding `COc1ccc2c(Nc3cccc(O)c3)ccnc2c1`, the negative logarithm of the IC50 (pIC50) in the assay with BGC-823, in the assay on NCI-H1650, with HeLa, in the assay with A2780, in the assay with RKO and in the assay with HCT-116 was under 5.00 each time. For the same compound, the negative logarithm of the IC50 (pIC50) with A549 was under 5.00.

`CCCCOc1ccc2c(Nc3cccc(OC)c3)ccnc2c1`: the pIC50 with BGC-823 is 5.14; in the assay with NCI-H1650, 5.06; with HeLa, 5.18; in the assay on A2780, 5.05; with RKO, 5.09; in the assay with HCT-116, 5.11. For the same compound, in the assay on A549, the negative logarithm of the IC50 (pIC50) is under 5.00.

As to `COc1cccc(Nc2ccnc3cc(OC(C)C)ccc23)c1`, the pIC50 was 5.33 with BGC-823; under 5.00 in the assay with NCI-H1650; 6.64 in the assay on HeLa; 6.19 with A2780; under 5.00 with RKO; under 5.00 in the assay with HCT-116. The compound also showed a negative logarithm of the IC50 (pIC50) in the assay with A549 of under 5.00.

For `Fc1cccc(Nc2ccnc3cc(F)ccc23)c1`, the pIC50 in the assay with BGC-823, with NCI-H1650, in the assay on HeLa, in the assay on A2780, in the assay on RKO and in the assay with HCT-116 was under 5.00 each time. Also, the pIC50 in the assay on A549 is under 5.00.

For `CCCCCCCCOc1ccc2c(Nc3cccc(OC)c3)ccnc2c1`, the pIC50 with BGC-823 was under 5.00; in the assay on NCI-H1650, 5.09; in the assay on HeLa, 5.11; in the assay on A2780, 5.09; in the assay with RKO, under 5.00; with HCT-116 it was under 5.00. The same compound gave a negative logarithm of the IC50 (pIC50) in the assay with A549 of under 5.00.

As to `COc1cccc(Nc2ccnc3cc(OCc4ccc(F)cc4)ccc23)c1`, the negative-log IC50 (pIC50) in the assay on BGC-823, in the assay on NCI-H1650, in the assay on HeLa, in the assay with A2780, in the assay with RKO and with HCT-116 was under 5.00 each time. Also, the pIC50 in the assay on A549 is under 5.00.

`CCCCCCCCOc1ccc2c(Nc3cccc([N+](=O)[O-])c3)ccnc2c1`: the pIC50 in the assay on BGC-823, with NCI-H1650, with HeLa, in the assay on A2780, in the assay with RKO and in the assay with HCT-116 was under 5.00 throughout. The same compound had a negative-log IC50 (pIC50) in the assay with A549 of under 5.00.

Turning to `CCCCCCCCOc1ccc2c(Nc3cccc(F)c3)ccnc2c1`, the pIC50 in the assay with BGC-823 is 5.22; in the assay on NCI-H1650 it was 5.02; in the assay with HeLa, 5.37; with A2780, 5.01; in the assay with RKO, 5.02; in the assay with HCT-116 it was 5.03. The pIC50 in the assay on A549 is 5.02.

Consider `Fc1ccc(COc2ccc3c(Nc4cccc(F)c4)ccnc3c2)cc1`, for which the pIC50 in the assay on BGC-823, in the assay with NCI-H1650, in the assay with HeLa, with A2780, in the assay with RKO and in the assay on HCT-116 was under 5.00 throughout. The pIC50 in the assay with A549 was under 5.00.

As for `COc1cccc(Nc2ccnc3cc(Cl)ccc23)c1`, the pIC50 with BGC-823, in the assay with NCI-H1650, in the assay with HeLa, in the assay on A2780, with RKO and in the assay on HCT-116 was under 5.00 throughout. The negative logarithm of the IC50 (pIC50) with A549 is under 5.00.

For `Fc1cccc(Nc2ccnc3cc(Br)ccc23)c1`, the negative-log IC50 (pIC50) in the assay with BGC-823, with NCI-H1650, with HeLa, in the assay with A2780, with RKO and with HCT-116 was under 5.00 each time. Moreover, the negative logarithm of the IC50 (pIC50) in the assay on A549 was under 5.00.

Consider `Fc1cccc(Nc2ccnc3cc(OCCCc4ccccc4)ccc23)c1`, for which the negative logarithm of the IC50 (pIC50) is under 5.00 in the assay with BGC-823; under 5.00 with NCI-H1650; 6.60 in the assay on HeLa; 5.34 in the assay with A2780; under 5.00 with RKO; under 5.00 in the assay with HCT-116. The compound also had a negative logarithm of the IC50 (pIC50) in the assay with A549 of under 5.00.

Turning to `Clc1cccc(Nc2ccnc3cc(Br)ccc23)c1`, the pIC50 in the assay on BGC-823, in the assay with NCI-H1650, in the assay with HeLa, with A2780, in the assay with RKO and with HCT-116 was under 5.00 in each case. The negative logarithm of the IC50 (pIC50) with A549 was under 5.00.

Consider `CCCCOc1ccc2c(Nc3cccc([N+](=O)[O-])c3)ccnc2c1`, for which the pIC50 was 5.21 in the assay with BGC-823; 5.02 with NCI-H1650; 5.36 with HeLa; 5.29 in the assay with A2780; 5.11 in the assay on RKO; 5.17 with HCT-116. For the same compound, the pIC50 with A549 was under 5.00.

As to `COc1cccc(Nc2ccnc3cc(Br)ccc23)c1`, the negative-log IC50 (pIC50) with BGC-823, with NCI-H1650, in the assay with HeLa, in the assay with A2780, in the assay on RKO and in the assay on HCT-116 was under 5.00 in each case. In addition, in the assay on A549, the pIC50 is under 5.00.

On to `CCOc1ccc2c(Nc3cccc(OC)c3)ccnc2c1`, for which the pIC50 in the assay on BGC-823 was under 5.00; with NCI-H1650, under 5.00; in the assay on HeLa, 6.39; in the assay on A2780 it was 5.02; with RKO, under 5.00; in the assay with HCT-116, under 5.00. In the assay on A549, this compound had a pIC50 of under 5.00.

Consider `COc1cccc(Nc2ccnc3cc(OCc4ccccc4)ccc23)c1`, for which the pIC50 in the assay on BGC-823, with NCI-H1650, with HeLa, with A2780, in the assay with RKO and in the assay on HCT-116 was under 5.00 throughout. In addition, the pIC50 with A549 is under 5.00.

With `CC(C)Oc1ccc2c(Nc3cccc(F)c3)ccnc2c1`, the pIC50 was under 5.00 in the assay on BGC-823; under 5.00 in the assay on NCI-H1650; 6.70 with HeLa; 6.23 in the assay with A2780; under 5.00 in the assay with RKO; under 5.00 in the assay with HCT-116. The compound further had a negative-log IC50 (pIC50) with A549 of under 5.00.

In the case of `Fc1cccc(Nc2ccnc3cc(OCc4ccccc4)ccc23)c1`, the pIC50 with BGC-823, in the assay with NCI-H1650, with HeLa, in the assay with A2780, with RKO and with HCT-116 was under 5.00 throughout. The negative-log IC50 (pIC50) in the assay with A549 is under 5.00.

As for `COc1ccc2c(Nc3ccc(Cl)c(Cl)c3)ccnc2c1`, the pIC50 with BGC-823, in the assay with NCI-H1650, with HeLa, in the assay on A2780, in the assay on RKO and in the assay with HCT-116 was under 5.00 throughout. The pIC50 in the assay with A549 is under 5.00.

On to `Fc1ccc2c(Nc3cccc(Cl)c3)ccnc2c1`, for which the negative logarithm of the IC50 (pIC50) with BGC-823, in the assay on NCI-H1650, in the assay on HeLa, with A2780, in the assay with RKO and with HCT-116 was under 5.00 throughout. Further, the pIC50 in the assay on A549 is under 5.00.

In the case of `C=CCOc1ccc2c(Nc3cccc([N+](=O)[O-])c3)ccnc2c1`, the negative logarithm of the IC50 (pIC50) is 5.42 with BGC-823; under 5.00 in the assay with NCI-H1650; 6.66 with HeLa; 5.17 in the assay on A2780; under 5.00 in the assay on RKO; under 5.00 in the assay on HCT-116. Besides, the pIC50 with A549 is under 5.00.

As to `O=[N+]([O-])c1cccc(Nc2ccnc3cc(Cl)ccc23)c1`, the negative logarithm of the IC50 (pIC50) with BGC-823, in the assay with NCI-H1650, with HeLa, in the assay on A2780, in the assay with RKO and with HCT-116 was under 5.00 each time. Also, in the assay on A549, the pIC50 is under 5.00.

`O=[N+]([O-])c1cccc(Nc2ccnc3cc(OCc4ccc(F)cc4)ccc23)c1`: the pIC50 is 5.02 in the assay with BGC-823; 5.03 in the assay on NCI-H1650; 5.24 in the assay on HeLa; 5.19 in the assay on A2780; 5.06 in the assay on RKO; 5.09 with HCT-116. Further, the negative logarithm of the IC50 (pIC50) in the assay on A549 was 5.14.

Turning to `C=CCOc1ccc2c(Nc3cccc(OC)c3)ccnc2c1`, the pIC50 is 5.18 with BGC-823; under 5.00 in the assay on NCI-H1650; 5.66 in the assay with HeLa; 5.09 with A2780; under 5.00 in the assay with RKO; under 5.00 in the assay on HCT-116. Also, the negative-log IC50 (pIC50) with A549 was under 5.00.

With `COc1ccc2c(Nc3cccc(F)c3)ccnc2c1`, the pIC50 in the assay with BGC-823, in the assay on NCI-H1650, in the assay with HeLa, with A2780, in the assay on RKO and with HCT-116 was under 5.00 in each case. For the same compound, the pIC50 in the assay with A549 is under 5.00.

Regarding `CCOc1ccc2c(Nc3cccc(F)c3)ccnc2c1`, the pIC50 was 5.01 with BGC-823; under 5.00 in the assay with NCI-H1650; 6.17 with HeLa; under 5.00 in the assay with A2780; under 5.00 in the assay on RKO; under 5.00 in the assay with HCT-116. Moreover, in the assay on A549, the pIC50 was under 5.00.

`COc1ccc2c(Nc3cccc([N+](=O)[O-])c3)ccnc2c1`: the negative logarithm of the IC50 (pIC50) in the assay with BGC-823 is 5.13; in the assay on NCI-H1650 it was under 5.00; in the assay on HeLa, under 5.00; with A2780, under 5.00; with RKO, under 5.00; with HCT-116, under 5.00. The pIC50 with A549 was under 5.00.

As for `O=[N+]([O-])c1cccc(Nc2ccnc3cc(OCc4ccccc4)ccc23)c1`, the pIC50 was 5.09 in the assay on BGC-823; 5.02 with NCI-H1650; 5.27 in the assay on HeLa; 5.04 with A2780; 5.01 in the assay on RKO; 5.06 in the assay on HCT-116. In the assay with A549, the pIC50 is 5.02.

With `COc1ccc2c(Nc3cccc(Br)c3)ccnc2c1`, the pIC50 in the assay with BGC-823, in the assay on NCI-H1650, with HeLa, with A2780, with RKO and in the assay with HCT-116 was under 5.00 throughout. For the same compound, the negative-log IC50 (pIC50) in the assay with A549 was under 5.00.

By pIC50 is commonly meant the negative decadic logarithm of the IC50, by convention in mol/L.
